Source: patent publication US11814352B2, “Salts formed by 2-(1-acyloxy-n-pentyl) benzoic acid and basic amino acid or aminoguanidine, and preparation method and application thereof” (JIANGSU KANION PHARMACEUTICAL CO., LTD., priority 2018, dated 2023)
Where a name gives a salt, the structure may show the parent alone. Marks after values point to notes of the source that are not given here.

Key:
[1] = system: ADP induced platelet aggregation; test: In vitro anti-platelet aggregation, ADP induced (turbidimetry, PRP); type: cell-based, rabbits; settings: read-out: IC50 ADP (10 μM); rabbit PRP, inducer ADP 10 μM, 37° C.
Method: (§1) The animals were used for experiments after 1 week.
(§2) The common carotid artery was separated, and a polyethylene tube was inserted into the common carotid artery to collect blood. […] The upper beige suspension was pipetted to obtain the platelet-rich plasma (PRP). […] The PRP was adjusted with the PPP to make the platelet count at 1×10^8/mL.
(§3) 260 μL of platelet-rich plasma (PRP) was added into a turbidimetric tube. Then 10 μL of test compounds with different concentrations, positive control drugs or normal saline were separately added, and the plasma was incubated at 37° C. for 5 min. Then 30 μL of inducers were added in sequence. The final concentration of an inducer ADP is 10 μM, and the final concentration of an inducer AA is 1 mM. […] Inhibition rate of platelet aggregation (IRPA)=(platelet aggregation rate of the control group−platelet aggregation rate of the experimental group)/platelet aggregation rate of the control group×100%.

[2] = literature value; cited from earlier work
MCAO rats = test: Cerebral infarction, cerebral edema and nerve function of rats with focal cerebral ischemia (MCAO); type: in vivo, SD rats
Method: The total number of the animals was 88.
Sham operation group: equal volume of normal saline (containing 1% DMSO) (iv. 3 days), TTC, cerebral edema and neurological function score (n=8); […]
The middle cerebral arteries of the rats were blocked by a suture-occluded method, and reperfused after 2 h. […] All drugs were formulated into normal saline solutions containing 1% DMSO for administration, and the duration of administration was controlled at approximately 1 min. […] 2 h after the last administration, the neurological defect scores were firstly obtained, and then the rats of each group were sacrificed. The whole brains were taken out and weighed (wet weight), TTC stained, and dried to determine the effects of the compounds on cerebral infarction and cerebral edema.
2 h after the last administration, the neurological defects of the animals were graded and scored by the Longa's method.
After the neurobehavioral examination was completed, four coronal incisions were made on the whole brains of the rats on the optic chiasma and 2 mm anteroposterior positions of the optic chiasma. After the whole brains were cut into five slices, the brain slices were quickly placed in 5 ml of phosphate buffer solution containing 2% TTC, and incubated at 37° C. in the dark. In the incubation process, the brain slices were turned once every 5 min. After 10 min of incubation, the brain slices were taken out and pictures were taken with a digital camera (Olympus C-4000, Japan).
The calculation formula of brain water content is as follows: Water content of brain tissue (%)=(wet weight of brain tissue−dry weight of brain tissue)/wet weight of brain tissue×100%; Cerebral edema rate (%)=water content of brain tissue of each group (%)−water content of brain tissue of sham operation group (%)/water content of brain tissue of sham operation group (%)×100%; Inhibition rate of cerebral edema (%)=(rate of cerebral edema of model group (%)−rate of cerebral edema of administration group (%))/rate of cerebral edema of model group (%)×100%.

[3] = system: AA induced platelet aggregation; test: In vitro anti-platelet aggregation, AA induced (turbidimetry, PRP); type: cell-based, rabbits; settings: read-out: IC50 AA (1 mM); rabbit PRP, inducer AA 1 mM, 37° C.
Method: as §1, §2, §3

[4] = system: arteriovenous bypass thrombosis in rats; test: Effect on arteriovenous bypass thrombosis in rats; type: in vivo, SD rats; settings: 10 mg/kg/day tail vein 7 days
Method: Male SD rats, weighing 250-280 g, purchased from Beijing Vital River Laboratory Animal Technology Co., Ltd., raised in an SPF breeding environment with indoor temperature controlled at 23±2° C., and allowed to freely eat and drink. The total number of the animals is 64.
Model group: injected with the same volume of normal saline (containing 1% DMSO) through the tail vein, and administered continuously for 7 days. The test was started 2 h after the last dose (n=8).
The dose of all drugs was 10 mg/kg/day. The drugs were formulated into normal saline solutions containing 1% DMSO, and injected through the tail vein for 7 consecutive days. The test was started 2 hours after the last dose (n=8).
The rats were intraperitoneally injected with a 3% pentobarbital sodium solution (30 mg/kg). After anesthesia, the rats were immobilized in the supine position, and a median cervical incision was made to separate the right common carotid artery and left external jugular vein. A 6 cm long suture was put in the middle of a polyethylene tube (the suture needs to be weighed before being put in the tube), and the polyethylene tube was filled with heparin saline (50 U/mL). The polyethylene tube was inserted into the separated blood vessels to make the artery and vein form a loop. After 15 min of circulation of the blood flow, the suture was taken out, and the suture with thrombus was collected and weighed immediately. Then, after the suture was dried at room temperature for 24 h, the dry weight was determined. The total weight minus the weight of the suture was the wet weight of the thrombus, and the dry weight minus the weight of the suture was the dry weight of the thrombus.

[5] = iv 2 h after the beginning of reperfusion, 5 mg/kg
[6] = iv at the beginning of reperfusion, 5 mg/kg
[7] = MCAO rats, 10 mg/kg/day iv 3 days (combinations equimolar), first dose 2 h after reperfusion

Question: Which melting point does the source give for `CCCCC(OC(=O)CC)c1ccccc1C(=O)O` (racemic) (as salt: salt) [I2, L-Arginine (R/S)-2-(1-Propionyloxy-n-Pentyl) Benzoate] here?
Answer: 169 to 171 °C

Question: For `CCCCC(OC(=O)CCC)c1ccccc1C(=O)O` (racemic) (as salt: salt) [I3, L-Arginine (R/S)-2-(1-N-Butyryloxy-n-Pentyl) Benzoate], which melting point is on record?
Answer: 152 to 153 °C

Question: With `CCCCC1OC(=O)c2ccccc21` (racemic) [(R/S)-NBP, racemic (R/S)-3-N-butyl-1(3H)-isobenzofuranone] as the compound, how does the IC50 [1] read?
Answer: 1360 ± 130 µM

Question: And the half-life [2]?
Answer: 44 min

Question: What about the Cerebral edema (MCAO rats; [5]) of the same compound?
Answer: 6.72 ± 4.05%

Question: What about the Infarct volume (MCAO rats; [5]) of the same compound?
Answer: 36.50 ± 7.58%

Question: And the “Inhibition rate of cerebral edema” value (MCAO rats; [5])?
Answer: 28.80%

Question: What about the “Inhibition rate of infarct volume” value (MCAO rats; [5]) of the same compound?
Answer: 26.43%

Question: And the Cerebral edema (MCAO rats; [6])?
Answer: 5.80 ± 1.83%

Question: What about the Infarct volume (MCAO rats; [6]) of the same compound?
Answer: 28.55 ± 8.25%

Question: And the “Inhibition rate of cerebral edema” value (MCAO rats; [6])?
Answer: 40.21%

Question: What about the “Inhibition rate of infarct volume” value (MCAO rats; [6]) of the same compound?
Answer: 41.96%

Question: What about the IC50 [3] of the same compound?
Answer: 600 ± 70 µM

Question: With `CCCCC(OC(C)=O)c1ccccc1C(=O)O.N=C(N)NCCC[C@H](N)C(=O)O` (racemic) [I1, L-Arginine (R/S)-2-(1-Acetoxy-n-Pentyl) Benzoate] as the compound, how does the IC50 [1] read?
Answer: 740 ± 90 µM

Question: What about the “Dry weight of thrombus” value ([4]; 2 h after last dose) of the same compound?
Answer: 7.64 ± 0.40

Question: And the “Wet weight of thrombus” value ([4]; 2 h after last dose)?
Answer: 25.81 ± 2.20**^

Question: And the “Inhibition rate (dry weight of thrombus)” value ([4]; vs model group)?
Answer: 23.94%

Question: What about the “Inhibition rate (wet weight of thrombus)” value ([4]; vs model group) of the same compound?
Answer: 28.72%

Question: What about the Cerebral edema (MCAO rats; [7]) of the same compound?
Answer: 4.97 ± 3.30%

Question: What about the Infarct volume (MCAO rats; [7]) of the same compound?
Answer: 16.11 ± 2.74%

Question: And the “Inhibition rate of cerebral edema” value (MCAO rats; [7])?
Answer: 69.00%

Question: And the “Inhibition rate of infarct volume” value (MCAO rats; [7])?
Answer: 61.50%

Question: And the IC50 [3]?
Answer: 180 ± 30 µM
